Measured values from patent publication US9062041B2 (Bayer Intellectual Property GmbH, priority 2011, dated 2015).

Assays:
Type in all cases: cell-based
[1] = target: EP2 subtype of the human PGE2 receptor (Homo sapiens, UniProt P43116); assay: cAMP antagonism test on the human EP2 receptor (HTRF cAMP detection); settings: hEP2 receptor, read-out: Antagonism hEP2 IC50
In short: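 Cells expressing human EP2 preincubated 20 min at RT with compound (0.8 nM–16.5 μM), then stimulated 60 min with PGE2 (3× solution 1.5 nM) in PBS-IBMX. After 20 min lysis, cAMP measured by competitive HTRF with cAMP-d2 and Eu cryptate anti-cAMP antibody (665/620 nm ratio).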

human PGD receptor = target: T1, human PGD receptor (Homo sapiens, UniProt Q13258); assay: cAMP antagonism test on the human prostaglandin D receptor (HTRF cAMP detection); settings: selectivity towards hDP, IC50 measured by cAMP antagonism test
T1 sequence (Q13258 1-359): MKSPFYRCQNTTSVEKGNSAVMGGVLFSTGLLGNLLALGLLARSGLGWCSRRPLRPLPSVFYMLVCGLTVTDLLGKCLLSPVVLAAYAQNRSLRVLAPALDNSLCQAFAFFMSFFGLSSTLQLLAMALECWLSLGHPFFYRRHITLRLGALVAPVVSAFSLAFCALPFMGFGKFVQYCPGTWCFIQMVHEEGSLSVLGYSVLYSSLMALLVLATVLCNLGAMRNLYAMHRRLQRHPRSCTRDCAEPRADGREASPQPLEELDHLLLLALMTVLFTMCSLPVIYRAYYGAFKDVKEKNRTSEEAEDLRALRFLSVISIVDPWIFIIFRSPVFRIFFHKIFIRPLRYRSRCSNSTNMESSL
In short: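 Cells pre-mixed with cAMP-d2 were preincubated with compound (0.8 nM–16.5 μM) for 20 min at RT, then stimulated with 3× PGD2 solution (6 nM, in PBS-IBMX) for 30 min at RT. After lysis (20 min), HTRF read at 665/620 nm; antagonism seen as rise in FRET ratio.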

[2] = target: EP4 subtype of the human PGE2 receptor (Homo sapiens, UniProt P35408); assay: cAMP antagonism test on the human EP4 receptor (HTRF cAMP detection); settings: selectivity towards hEP4, IC50 measured by cAMP antagonism test
EP4 subtype of the human PGE2 receptor, sequence (P35408 whole entry): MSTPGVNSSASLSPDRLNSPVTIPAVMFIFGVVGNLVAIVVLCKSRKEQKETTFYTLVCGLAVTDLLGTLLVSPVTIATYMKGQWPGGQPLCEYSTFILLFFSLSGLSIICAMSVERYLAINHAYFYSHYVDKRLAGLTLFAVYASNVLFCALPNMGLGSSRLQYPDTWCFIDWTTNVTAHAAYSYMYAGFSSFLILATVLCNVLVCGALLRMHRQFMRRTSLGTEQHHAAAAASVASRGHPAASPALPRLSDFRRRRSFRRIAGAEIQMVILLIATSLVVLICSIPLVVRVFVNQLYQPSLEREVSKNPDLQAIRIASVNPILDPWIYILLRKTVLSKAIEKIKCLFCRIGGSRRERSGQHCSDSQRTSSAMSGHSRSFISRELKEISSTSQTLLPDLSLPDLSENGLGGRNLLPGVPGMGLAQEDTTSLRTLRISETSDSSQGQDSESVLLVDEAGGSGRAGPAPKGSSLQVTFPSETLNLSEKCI
In short: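 Cells expressing human EP4 preincubated 20 min at RT with compound (0.8 nM–16.5 μM), then stimulated with PGE2 (0.3 nM in 3× solution, with IBMX) 60 min at RT. After lysis, cAMP measured by HTRF competition (665/620 nm ratio); antagonism seen as rise in FRET signal.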

EP2 subtype of the human PGE2 receptor, sequence (P43116 whole entry): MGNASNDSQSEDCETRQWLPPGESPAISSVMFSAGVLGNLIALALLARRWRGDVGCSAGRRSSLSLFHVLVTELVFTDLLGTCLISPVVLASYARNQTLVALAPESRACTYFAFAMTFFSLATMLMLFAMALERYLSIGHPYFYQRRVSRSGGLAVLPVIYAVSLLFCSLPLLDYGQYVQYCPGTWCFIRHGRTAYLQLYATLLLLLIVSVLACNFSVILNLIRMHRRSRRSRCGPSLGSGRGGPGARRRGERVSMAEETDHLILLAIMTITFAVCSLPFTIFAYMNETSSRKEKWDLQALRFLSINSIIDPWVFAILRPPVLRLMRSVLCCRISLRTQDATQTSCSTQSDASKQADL

| SMILES | IC50 [1] | Selectivity hEP2/hDP (human PGD receptor) | Selectivity hEP2/hEP4 [2] |
| --- | --- | --- | --- |
| COc1ccc2cc(C(=O)N3CC(Cn4cc5c(C)c(C(=O)NCC(F)(F)F)ccc5n4)C3)n(C)c2c1 [Example 169, 2-({1-[(6-methoxy-1-methyl-1H-indol-2-yl)carbonyl]azetidin-3-yl}methyl)-4-methyl-N-(2,2,2-trifluoroethyl)-2H-indazol-5-carboxamide] | 27.7 nM | xxx (xxx > 100) | xxx (xxx > 100) |
| COCCNC(=O)c1ccc2nn(CC3CCN(C(=O)c4ccc(OC(F)F)cc4)CC3)cc2c1C [Example 365, 2-({1-[4-(difluoromethoxy)benzoyl]piperidin-4-yl}methyl)-N-(2-methoxyethyl)-4-methyl-2H-indazol-5-carboxamide] | 5.3 nM | xxx (xxx > 100) | xxx (xxx > 100) |
| Cc1c(C(=O)NCCOCC(F)(F)F)ccc2nn(CC3CCN(C(=O)c4ccc(C5CC5)cc4)CC3)cc12 [Example 95, 2-{[1-(4-cyclo-propylbenzoyl)-piperidin-4-yl]-methyl}-4-methyl-N-[2-(2,2,2-tri-fluoroethoxy)ethyl]-2H-indazol-5-carboxamide] | 6.18 nM | xxx (xxx > 100) | xxx (xxx > 100) |
| [2H]C([2H])([2H])OC([2H])([2H])C([2H])([2H])NC(=O)c1ccc2nn(CC3CCN(C(=O)c4ccc(Oc5ccc(F)cc5)cc4)CC3)cc2c1C [Example 116, 2-({1-[4-(4-fluoro-phenoxy)benzoyl]-piperidin-4-yl}methyl)-4-methyl-N-(2-[^2H3]-methyloxy[^2H4]ethyl)-2H-indazol-5-carboxamide] | 5.52 nM | xxx (xxx > 100) | xxx (xxx > 100) |
| Cc1c(C(=O)NCCS(C)(=O)=O)ccc2nn(CC3CCN(C(=O)c4ccc(Oc5ccc(C(F)(F)F)cc5)cc4)CC3)cc12 [Example 245, N-(2-mesylethyl)-4-methyl-2-[(1-{4-[4-(trifluoromethyl)phenoxy]benzoyl}-piperidin-4-yl)methyl]-2H-indazol-5-carboxamide] | 7.79 nM | xxx (xxx > 100) | xxx (xxx > 100) |
| COCCNC(=O)c1cc2cn(CC3CN(C(=O)c4ccc(Cl)cc4)C3)nc2cc1C [Example 178, 2-{[1-(4-chlorobenzoyl)azetidin-3-yl]methyl}-N-(2-methoxyethyl)-6-methyl-2H-indazol-5-carboxamide] | 68.3 nM | xxx (xxx > 100) | xxx (xxx > 100) |
| COCCNC(=O)c1ccc2nn(CC3CCN(C(=O)c4ccc(-c5cnc(C)nc5)cc4)CC3)cc2c1C [Example 379, N-(2-methoxyethyl)-4-methyl-2-({1-[4-(2-methylpyrimidin-5-yl)benzoyl]-piperidin-4-yl}methyl)-2H-indazol-5-carboxamide] | 62.6 nM | xxx (xxx > 100) | xxx (xxx > 100) |
| COCCNC(=O)c1ccc2nn(CC3CCN(C(=O)c4ccc(-c5cc(F)cc(F)c5)cc4)CC3)cc2c1C [Example 389, 2-({1-[(3′,5′-difluorobiphenyl-4-yl)carbonyl]piperidin-4-yl}methyl)-N-(2-methoxyethyl)-4-methyl-2H-indazol-5-carboxamide] | 4.51 nM | xxx (xxx > 100) | xxx (xxx > 100) |
| Cc1c(C(=O)NCCN2CCOCC2)ccc2nn(CC3CCN(C(=O)c4cccc(OC(F)(F)F)c4)CC3)cc12 [Example 61, 4-methyl-N-(2-morpholinoethyl)-2-({1-[3-(trifluoromethoxy)benzoyl]piperidin-4-yl}methyl)-2H-indazol-5-carboxamide] | 1500 nM | xx (xx: 10-100) | xx (xx: 10-100) |
| COCCNC(=O)c1ccc2nn(CC3CCN(C(=O)c4ccc(F)cc4)CC3)cc2c1C [Example 22, 2-{[1-(4-fluoro-benzoyl)piperidin-4-yl]methyl}-N-(2-methoxyethyl)-4-methyl-2H-indazol-5-carboxamide] | 30.3 nM | xxx (xxx > 100) | xxx (xxx > 100) |
| CCc1c(C(=O)NCCOC)ccc2nn(CC3CCN(C(=O)c4ccc(OC(F)(F)F)cc4)CC3)cc12 [Example 213, 4-Ethyl-N-(2-methoxyethyl)-2-({1-[4-(trifluoromethoxy)benzoyl]piperidin-4-yl}methyl)-2H-indazol-5-carboxamide] | 82.4 nM | xxx (xxx > 100) | xxx (xxx > 100) |
| COc1ccc2c(c1)cc(C(=O)N1CCC(Cn3cc4c(C)c(C(=O)NCC(F)(F)F)ccc4n3)CC1)n2C [Example 293, 2-({1-[(5-methoxy-1-methyl-1H-indol-2-yl)carbonyl]piperidin-4-yl}methyl)-4-methyl-N-(2,2,2-trifluoroethyl)-2H-indazol-5-carboxamide] | 28.3 nM | xxx (xxx > 100) | xxx (xxx > 100) |
| COCCNC(=O)c1ccc2nn(CC3CN(C(=O)c4ccc(Oc5ccc(C(F)(F)F)cn5)cc4)C3)cc2c1C [Example 174, N-(2-methoxyethyl)-4-methyl-2-{[1-(4-{[5-(trifluoromethyl)pyridin-2-yl]oxy}benzoyl)azetidin-3-yl]methyl}-2H-indazol-5-carboxamide] | 6.58 nM | xxx (xxx > 100) | xxx (xxx > 100) |
| COCCNC(=O)c1cc2cn(CC3CCN(C(=O)c4ccc(C(F)(F)F)c(F)c4)CC3)nc2cc1C [Example 208, 2-({1-[3-fluoro-4-(trifluoromethyl)benzoyl]piperidin-4-yl}methyl)-N-(2-methoxyethyl)-6-methyl-2H-indazol-5-carboxamide] | 80.6 nM | xxx (xxx > 100) | xxx (xxx > 100) |
| COCCNC(=O)c1ccc2nn(CC3CCN(C(=O)c4ccc(-c5cnco5)cc4)CC3)cc2c1C [Example 36, N-(2-methoxyethyl)-4-methyl-2-({1-[4-(oxazol-5-yl)-benzoyl]piperidin-4-yl}methyl)-2H-indazol-5-carboxamide] | 61.6 nM | xxx (xxx > 100) | xxx (xxx > 100) |
| COCCNC(=O)c1ccc2nn(CC3CCN(C(=O)c4ccc(C(F)(F)F)cc4F)CC3)cc2c1C [Example 10, 2-({1-[2-fluoro-4-(trifluoromethyl)benzoyl]piperidin-4-yl}methyl)-N-(2-methoxy-ethyl)-4-methyl-2H-indazol-5-carboxamide] | 8.67 nM | xxx (xxx > 100) | xxx (xxx > 100) |
| COCCNC(=O)c1ccc2nn(CC3CCN(C(=O)c4ccc(Oc5cccc(C(F)(F)F)n5)cc4)CC3)cc2c1C [Example 350, N-(2-methoxyethyl)-4-methyl-2-{[1-(4-{[6-(trifluoromethyl)pyridin-2-yl]oxy}-benzoyl)piperidin-4-yl]methyl}-2H-indazol-5-carboxamide] | 8.41 nM | xxx (xxx > 100) | xxx (xxx > 100) |
| Cc1cc2nn(CC3CN(C(=O)c4ccc(Cl)cc4)C3)cc2cc1C(=O)NCC1CCCCO1 (racemic) [Example 191, (+/−)-2-{[1-(4-chlorobenzoyl)azetidin-3-yl]methyl}-6-methyl-N-(3,4,5,6-tetrahydro-2H-pyran-2-ylmethyl)-2H-indazol-5-carboxamide] | 47.1 nM | xxx (xxx > 100) | xxx (xxx > 100) |
| COCCNC(=O)c1ccc2nn(CC3CCN(C(=O)c4ccc(C#N)cc4)CC3)cc2c1C [Example 33, 2-{[1-(4-cyano-benzoyl)piperidin-4-yl]methyl}-N-(2-methoxyethyl)-4-methyl-2H-indazol-5-carboxamide] | 34.2 nM | xxx (xxx > 100) | xxx (xxx > 100) |
| COCCNC(=O)c1ccc2nn(CC3CN(C(=O)c4ccc(Br)cc4)C3)cc2c1OC [Example 216, 2-{[1-(4-bromobenzoyl)azetidin-3-yl]methyl}-4-methoxy-N-(2-methoxyethyl)-2H-indazol-5-carboxamide] | 86.1 nM | xxx (xxx > 100) | xxx (xxx > 100) |
| CCOc1c(C(=O)NCCOC)ccc2nn(CC3CCN(C(=O)c4ccc(Cl)cc4)CC3)cc12 [Example 274, 2-{[1-(4-chlorobenzoyl)piperidin-4-yl]methyl}-4-ethoxy-N-(2-methoxyethyl)-2H-indazol-5-carboxamide] | 44.6 nM | xxx (xxx > 100) | xxx (xxx > 100) |
